The values below are quoted from earlier work in patent publication US20060275223A1, “Erythritol compositions for teeth and gums” (priority 2005, published 2006).

The conditions of the data set: erythritol comprises 20% of the diet.

For `OC[C@@H](O)[C@@H](O)CO` [erythritol], the diarrhea entry is given as “does not cause diarrhea”.
